Values joined by “and” are separate entries in the source; they are usually repeats but may differ in a detail not shown here. Identical values can stand only once. Marks after values point to notes of the source that are not given here.
Test system: anti collagen antibodies induced arthritis (ACAIA)
Experiment: Anti collagen antibodies induced arthritis (ACAIA) in mice, intra-articular treatment: paw thickness, arthritis clinical score, body weight;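 further: mouse arthritis induced by IV anti-collagen mAb on day 0 plus IP LPS on day 4, with body weight, caliper paw thickness and 0-4 paw score tracked against a day 0 baseline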
[1] = 0.01 mg/kg IA (Group 5), Baseline
[2] = 0.01 mg/kg IA (Group 5), Day 10
[3] = 0.01 mg/kg IA (Group 5), Day 12
[4] = 0.1 mg/kg IA (Group 4), Baseline

## Cn1cc(-c2cccc(O)c2Oc2ccccc2)c2cc[nH]c2c1=O [BETi1]
[1]
  Clinical score of treated leg (Avg.): 0.00 points
  Paw thickness Avg. Delta untreated -treated: −0.08 mm
  Paw thickness of treated leg (Avg.): 2.06 mm
  Paw thickness of untreated leg (Avg.): 1.98 mm
  Percent change of weight per day (Av): 100.00%
  Δ clinical score untreated -treated, Avg. Delta: 0.00 points
0.01 mg/kg IA (Group 5), Day 3
  Clinical score of treated leg (Avg.): 0.00 points
  Paw thickness Avg. Delta untreated -treated: 0.02 mm
  Paw thickness of treated leg (Avg.): 2.12 mm
  Paw thickness of untreated leg (Avg.): 2.14 mm
  Percent change of weight per day (Av): 99.39%
  Δ clinical score untreated -treated, Avg. Delta: 0.00 points
0.01 mg/kg IA (Group 5), Day 4
  Clinical score of treated leg (Avg.): 0.00 points
  Paw thickness Avg. Delta untreated -treated: 0.00 mm
  Paw thickness of treated leg (Avg.): 2.18 mm
  Paw thickness of untreated leg (Avg.): 2.18 mm
  Percent change of weight per day (Av): 96.62%
  Δ clinical score untreated -treated, Avg. Delta: 0.00 points
0.01 mg/kg IA (Group 5), Day 5
  Clinical score of treated leg (Avg.): 0.00 points
  Paw thickness Avg. Delta untreated -treated: 0.00 mm
  Paw thickness of treated leg (Avg.): 2.18 mm
  Paw thickness of untreated leg (Avg.): 2.17 mm
  Percent change of weight per day (Av): 89.80%
  Δ clinical score untreated -treated, Avg. Delta: 0.00 points
0.01 mg/kg IA (Group 5), Day 6
  Clinical score of treated leg (Avg.): 0.71 points
  Paw thickness Avg. Delta untreated -treated: 0.05 mm
  Paw thickness of treated leg (Avg.): 2.34 mm
  Paw thickness of untreated leg (Avg.): 2.39 mm
  Percent change of weight per day (Av): 88.03%
  Δ clinical score untreated -treated, Avg. Delta: 0.14 points
0.01 mg/kg IA (Group 5), Day 7
  Clinical score of treated leg (Avg.): 1.86 points
  Paw thickness Avg. Delta untreated -treated: 0.02 mm
  Paw thickness of treated leg (Avg.): 2.60 mm
  Paw thickness of untreated leg (Avg.): 2.62 mm
  Percent change of weight per day (Av): 91.87%
  Δ clinical score untreated -treated, Avg. Delta: −0.29 points
0.01 mg/kg IA (Group 5), Day 8
  Clinical score of treated leg (Avg.): 1.86 points
  Paw thickness Avg. Delta untreated -treated: −0.01 mm
  Paw thickness of treated leg (Avg.): 2.64 mm
  Paw thickness of untreated leg (Avg.): 2.63 mm
  Percent change of weight per day (Av): 89.85%
  Δ clinical score untreated -treated, Avg. Delta: −0.14 points
[2]
  Clinical score of treated leg (Avg.): 2.14 points
  Paw thickness Avg. Delta untreated -treated: 0.05 mm
  Paw thickness of treated leg (Avg.): 2.68 mm
  Paw thickness of untreated leg (Avg.): 2.73 mm
  Percent change of weight per day (Av): 89.71%
  Δ clinical score untreated -treated, Avg. Delta: 0.00 points
[3]
  Clinical score of treated leg (Avg.): 2.43 points
  Paw thickness Avg. Delta untreated -treated: −0.20 mm
  Paw thickness of treated leg (Avg.): 3.01 mm
  Paw thickness of untreated leg (Avg.): 2.80 mm
  Percent change of weight per day (Av): 92.75%
  Δ clinical score untreated -treated, Avg. Delta: −1.00 points
[4]
  Clinical score of treated leg (Avg.): 0.00 points
  Paw thickness Avg. Delta untreated -treated: −0.04 mm
  Paw thickness of treated leg (Avg.): 2.06 mm
  Paw thickness of untreated leg (Avg.): 2.01 mm
  Percent change of weight per day (Av): 100.00%
  Δ clinical score untreated -treated, Avg. Delta: 0.00 points
0.1 mg/kg IA (Group 4), Day 3
  Clinical score of treated leg (Avg.): 0.00 points
  Paw thickness Avg. Delta untreated -treated: −0.05 mm
  Paw thickness of treated leg (Avg.): 2.18 mm
  Paw thickness of untreated leg (Avg.): 2.14 mm
  Percent change of weight per day (Av): 101.00%
  Δ clinical score untreated -treated, Avg. Delta: 0.00 points
0.1 mg/kg IA (Group 4), Day 4
  Clinical score of treated leg (Avg.): 0.00 points
  Paw thickness Avg. Delta untreated -treated: 0.04* mm
  Paw thickness of treated leg (Avg.): 2.17 mm
  Paw thickness of untreated leg (Avg.): 2.21 mm
  Percent change of weight per day (Av): 99.30%
  Δ clinical score untreated -treated, Avg. Delta: 0.00 points
0.1 mg/kg IA (Group 4), Day 5
  Clinical score of treated leg (Avg.): 0.00 points
  Paw thickness Avg. Delta untreated -treated: −0.02 mm
  Paw thickness of treated leg (Avg.): 2.17 mm
  Paw thickness of untreated leg (Avg.): 2.15 mm
  Percent change of weight per day (Av): 91.11%
  Δ clinical score untreated -treated, Avg. Delta: 0.00 points
0.1 mg/kg IA (Group 4), Day 6
  Clinical score of treated leg (Avg.): 1.57** points
  Paw thickness Avg. Delta untreated -treated: 0.06 mm
  Paw thickness of treated leg (Avg.): 2.57* mm
  Paw thickness of untreated leg (Avg.): 2.63 mm
  Percent change of weight per day (Av): 88.63%
  Δ clinical score untreated -treated, Avg. Delta: −0.43 points
0.1 mg/kg IA (Group 4), Day 7
  Clinical score of treated leg (Avg.): 2.00 points
  Paw thickness Avg. Delta untreated -treated: 0.05 mm
  Paw thickness of treated leg (Avg.): 2.82 mm
  Paw thickness of untreated leg (Avg.): 2.87 mm
  Percent change of weight per day (Av): 88.48%
  Δ clinical score untreated -treated, Avg. Delta: 0.00 points
0.1 mg/kg IA (Group 4), Day 8
  Clinical score of treated leg (Avg.): 2.29 points
  Paw thickness Avg. Delta untreated -treated: −0.05 mm
  Paw thickness of treated leg (Avg.): 2.86 mm
  Paw thickness of untreated leg (Avg.): 2.81 mm
  Percent change of weight per day (Av): 87.72%
  Δ clinical score untreated -treated, Avg. Delta: 0.00 points
0.1 mg/kg IA (Group 4), Day 10
  Clinical score of treated leg (Avg.): 2.43 points
  Paw thickness Avg. Delta untreated -treated: 0.05 mm
  Paw thickness of treated leg (Avg.): 2.94 mm
  Paw thickness of untreated leg (Avg.): 2.99 mm
  Percent change of weight per day (Av): 88.75%
  Δ clinical score untreated -treated, Avg. Delta: 0.14 points
0.1 mg/kg IA (Group 4), Day 12
  Clinical score of treated leg (Avg.): 2.57 points
  Paw thickness Avg. Delta untreated -treated: −0.05 mm
  Paw thickness of treated leg (Avg.): 3.10 mm
  Paw thickness of untreated leg (Avg.): 3.05 mm
  Percent change of weight per day (Av): 93.51%
  Δ clinical score untreated -treated, Avg. Delta: 0.43 points
1 mg/kg IA (Group 3), Baseline
  Clinical score of treated leg (Avg.): 0.00 points
  Paw thickness Avg. Delta untreated -treated: 0.04 mm
  Paw thickness of treated leg (Avg.): 2.05 mm
  Paw thickness of untreated leg (Avg.): 2.09 mm
  Percent change of weight per day (Av): 100.00%
  Percent change of weight per day (individual animal): 100%
  Δ clinical score untreated -treated, Avg. Delta: 0.00 points
1 mg/kg IA (Group 3), Day 3
  Clinical score of treated leg (Avg.): 0.00 points
  Paw thickness Avg. Delta untreated -treated: 0.02 mm
  Paw thickness of treated leg (Avg.): 2.11 mm
  Paw thickness of untreated leg (Avg.): 2.13 mm
  Percent change of weight per day (Av): 99.97%
  Percent change of weight per day (individual animal): 100.9804% and 98.22% and 102.4631% and 98.49% and 97.67%
  Δ clinical score untreated -treated, Avg. Delta: 0.00 points
1 mg/kg IA (Group 3), Day 4
  Clinical score of treated leg (Avg.): 0.00 points
  Paw thickness Avg. Delta untreated -treated: −0.03 mm
  Paw thickness of treated leg (Avg.): 2.22 mm
  Paw thickness of untreated leg (Avg.): 2.19 mm
  Percent change of weight per day (Av): 101.40%
  Percent change of weight per day (individual animal): 101.9608% and 100% (2×) and 103.9409% and 100.9302%
  Δ clinical score untreated -treated, Avg. Delta: 0.00 points
1 mg/kg IA (Group 3), Day 5
  Clinical score of treated leg (Avg.): 0.00 points
  Paw thickness Avg. Delta untreated -treated: 0.04 mm
  Paw thickness of treated leg (Avg.): 2.13 mm
  Paw thickness of untreated leg (Avg.): 2.17 mm
  Percent change of weight per day (Av): 91.68%
  Percent change of weight per day (individual animal): 93.63% and 89.78% and 94.58% and 88.94% and 89.3%
  Δ clinical score untreated -treated, Avg. Delta: 0.00 points
1 mg/kg IA (Group 3), Day 6
  Clinical score of treated leg (Avg.): 0.14 points
  Paw thickness Avg. Delta untreated -treated: 0.23* mm
  Paw thickness of treated leg (Avg.): 2.27* mm
  Paw thickness of untreated leg (Avg.): 2.50 mm
  Percent change of weight per day (Av): 89.39%
  Percent change of weight per day (individual animal): 91.67% and 82.67% and 92.61% and 90.45% and 89.77%
  Δ clinical score untreated -treated, Avg. Delta: 0.57 points
1 mg/kg IA (Group 3), Day 7
  Clinical score of treated leg (Avg.): 0.71 points
  Paw thickness Avg. Delta untreated -treated: 0.56* mm
  Paw thickness of treated leg (Avg.): 2.25** mm
  Paw thickness of untreated leg (Avg.): 2.80 mm
  Percent change of weight per day (Av): 89.93%
  Percent change of weight per day (individual animal): 89.71% and 84% and 93.1% and 89.45% and 90.23%
  Δ clinical score untreated -treated, Avg. Delta: 0.71 points
1 mg/kg IA (Group 3), Day 8
  Clinical score of treated leg (Avg.): 1.00 points
  Paw thickness Avg. Delta untreated -treated: 0.56 mm
  Paw thickness of treated leg (Avg.): 2.36* mm
  Paw thickness of untreated leg (Avg.): 2.92 mm
  Percent change of weight per day (Av): 91.22%
  Percent change of weight per day (individual animal): 90.69% and 88% and 92.61% and 89.95%
  Δ clinical score untreated -treated, Avg. Delta: 1.43 points
1 mg/kg IA (Group 3), Day 10
  Clinical score of treated leg (Avg.): 0.71 points
  Paw thickness Avg. Delta untreated -treated: 0.74 mm
  Paw thickness of treated leg (Avg.): 2.21* mm
  Paw thickness of untreated leg (Avg.): 2.95 mm
  Percent change of weight per day (Av): 93.11%
  Percent change of weight per day (individual animal): 92.16% and 94.67% and 93.6% and 93.47%
  Δ clinical score untreated -treated, Avg. Delta: 1.29 points
1 mg/kg IA (Group 3), Day 12
  Clinical score of treated leg (Avg.): 0.57 points
  Paw thickness Avg. Delta untreated -treated: 0.80 mm
  Paw thickness of treated leg (Avg.): 2.18 mm
  Paw thickness of untreated leg (Avg.): 2.98 mm
  Percent change of weight per day (Av): 97.09* percent
  Percent change of weight per day (individual animal): 95.1% and 100% and 98.03% and 96.98% and 93.49%
  Δ clinical score untreated -treated, Avg. Delta: 1.86 points
1 mg/kg IA, day 12
  reduction of arthritis score, treated vs untreated paw: 76.5%
  reduction of paw thickness, treated vs untreated paw: 26.8%

Reference: US20250339409A1, “USES OF PAN BET INHIBITORS” (VYNE THERAPEUTICS INC., priority 2021, published 2025)
